The record followed here is US10335409B2 (priority 2012, dated 2019).

What all share (type): cell-based, hepatitis C virus
Assay [1] has as its system genotype 1b (Con1) wild type transient HCV replicon in Huh-7-derived cells. Kind of assay: Transient-transfected HCV replicon EC50, genotype 1b wild type. The note with it: Hepatitis C virus, 72 h, transient-transfected replicon genotype 1b wild type, read-out: EC50 1B WT.
In assay [2] the test system is genotype 1b (Con1) stable HCV replicon in Huh-7-derived cells. Kind of assay: Stable subgenomic HCV replicon EC50, genotype 1b (Renilla luciferase). The note with it: Hepatitis C virus, stable replicon genotype 1b, 72 h, read-out: EC50 1B RLUC. In short, it runs like this: (§1)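 Compounds, three-fold diluted, were applied to Huh-7-derived cells harbouring luciferase replicons (genotype 1a H77, 1b Con1, 2a JFH-1, 4a ED43, with strain-specific adaptive mutations). Seventy-two hours later, intracellular replication was gauged by Renilla luciferase activity and EC50 derived by regression.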

Assay [3] has as its system genotype 1b NS3/4a protease inhibitor resistant variant D168A transient HCV replicon in Huh-7-derived cells. Kind of assay: Transient-transfected HCV replicon EC50, genotype 1b D168A. The note with it: Hepatitis C virus, 72 h, read-out: EC50 1B D168A, transient-transfected replicon genotype 1b D168A resistant variant, 72 h.
The subject of assay [4] is genotype 2a (JFH-1) stable HCV replicon in Huh-7-derived cells. Kind of assay: Stable subgenomic HCV replicon EC50, genotype 2a (Renilla luciferase). The note with it: Hepatitis C virus, stable replicon genotype 2a, 72 h, read-out: EC50 2A RLUC. Summed up: as §1
Assay [5] has as its system genotype 1a (H77) stable HCV replicon in Huh-7-derived cells. Kind of assay: Stable subgenomic HCV replicon EC50, genotype 1a (Renilla luciferase). The note with it: Hepatitis C virus, stable replicon genotype 1a, 72 h, read-out: EC50 1A RLUC. In short, it runs like this: as §1
Assay [6] deals with genotype 3a (S52) stable HCV replicon in Huh-7-derived cells. The experiment in a line: Stable subgenomic HCV replicon EC50, genotype 3a (Renilla luciferase). The note with it: Hepatitis C virus, 72 h, read-out: EC50 3A RLUC.
The subject of assay [7] is genotype 4a (ED43) stable HCV replicon in Huh-7-derived cells. The experiment in a line: Stable subgenomic HCV replicon EC50, genotype 4a (Renilla luciferase). The note with it: Hepatitis C virus, 72 h, read-out: EC50 4A RLUC. Summed up: as §1
Assay [8] has as its system genotype 1a NS3/4a protease inhibitor resistant variant R155K transient HCV replicon in Huh-7-derived cells. The experiment in a line: Transient-transfected HCV replicon EC50, genotype 1a R155K. The note with it: Hepatitis C virus, 72 h, read-out: EC50 1A R155K, transient-transfected replicon genotype 1a R155K resistant variant, 72 h.
Assay [9] relates to genotype 3a (S52) wild type transient HCV replicon in Huh-7-derived cells. Kind of assay: Transient-transfected HCV replicon EC50, genotype 3a wild type. The note with it: Hepatitis C virus; transient-transfected replicon genotype 3a wild type, 72 h; read-out: EC50 3A WT.
The subject of assay [10] is genotype 1a (H77) wild type transient HCV replicon in Huh-7-derived cells. The experiment in a line: Transient-transfected HCV replicon EC50, genotype 1a wild type. The note with it: Hepatitis C virus, 72 h, transient-transfected replicon genotype 1a wild type, read-out: EC50 1A WT.

Read-outs that look alike come from different tables or passages of the source.

Consider `CC[C@@H]1[C@@H]2CN(C(=O)[C@H](C(C)(C)C)NC(=O)O[C@@H]3C[C@H]3CCCCCc3nc4ccc(OC)cc4nc3O2)[C@@H]1C(=O)N[C@]1(C(=O)NS(=O)(=O)C2(C)CC2)C[C@H]1C` [Example 73, (1aR,5S,8S,9S,10R,22aR)-5-tert-butyl-9-ethyl-14-methoxy-N-[(1R,2R)-2-methyl-1-{[(1-methylcyclopropyl)sulfonyl]carbamoyl}cyclopropyl]-3,6-dioxo-1,1a,3,4,5,6,9,10,18,19,20,21,22,22a-tetradecahydro-8H-7,10-methanocyclopropa[18,19][1,10,3,6]dioxadiazacyclononadecino[11,12-b]quinoxaline-8-carboxamide], for which the EC50 in assay [1] was found to be 0.0062 µM; in assay [2], 0.0075 µM; in assay [3], 0.075 µM; in assay [4] it was 0.022 µM; in assay [5], 0.0079 µM; in assay [6] it was 0.178 µM. Besides, the EC50 was 0.0072 µM in [7], 0.025 µM in assay [8], 0.045 µM in assay [9] and 0.0088 µM in assay [10].
Regarding `COc1ccc2nc3c(nc2c1)O[C@H]1CN(C(=O)[C@H](C(C)(C)C)NC(=O)O[C@@H]2C[C@@H]4C[C@@H]4[C@H]2CCCCC3(F)F)[C@H](C(=O)N[C@]2(C(=O)NS(=O)(=O)C3(C)CC3)C[C@H]2C(F)F)[C@@H]1C` [Example 81, (1aS,2aR,6S,9S,10S,11R,23aR,23bS)-6-tert-butyl-N-[(1R,2R)-2-(difluoromethyl)-1-{[(1-methylcyclopropyl)sulfonyl]carbamoyl}cyclopropyl]-19,19-difluoro-15-methoxy-10-methyl-4,7-dioxo-1a,2,2a,4,5,6,7,10,11,19,20,21,22,23,23a,23b-hexadecahydro-1H,9H-8,11-methanocyclopropa[4′,5′]cyclopenta[1′,2′:18,19][1,10,3,6]dioxadiazacyclononadecino[11,12-b]quinoxaline-9-carboxamide], the 50% effective concentration (EC50) stood at 0.0024 µM in assay [1]; 0.0036 µM in [2]; 0.0027 µM in [3]; 0.0036 µM in assay [4]; 0.004 µM in assay [5]; 0.012 µM in assay [6]. Moreover, the EC50 in assay [7] came out at 0.0043 µM; in [8] it was 0.0025 µM; in [9], 0.0043 µM; in assay [10], 0.0037 µM.
Consider `CC[C@@H]1[C@@H]2CN(C(=O)[C@H](C(C)(C)C)NC(=O)O[C@]3(C)CCC[C@H]3CCCCCc3nc4ccc(OC)cc4nc3O2)[C@@H]1C(=O)N[C@]1(C(=O)NS(=O)(=O)C2(C)CC2)C[C@H]1CC` [Example 56, (3aR,7S,10S,11S,12R,24aR)-7-tert-butyl-11-ethyl-N-[(1R,2R)-2-ethyl-1-{[(1-methylcyclopropyl)sulfonyl]carbamoyl}cyclopropyl]-16-methoxy-3a-methyl-5,8-dioxo-1,2,3,3a,5,6,7,8,11,12,20,21,22,23,24,24a-hexadecahydro-10H-9,12-methanocyclopenta[18,19][1,10,3,6]dioxadiazacyclononadecino[11,12-b]quinoxaline-10-carboxamide], for which the EC50 in assay [1] came to 0.059 µM; in [2], 0.037 µM; in assay [3] it was 0.252 µM; in [4], 0.057 µM; in assay [5], 0.041 µM; in assay [6] it was 1.03 µM. The half-maximal effective concentration (EC50) in [7] amounted to 0.057 µM; in assay [8], 0.168 µM; in assay [9], 0.226 µM; in [10], 0.063 µM.
Take `CC[C@@H]1[C@@H]2CN(C(=O)[C@H](C(C)(C)C)NC(=O)O[C@]3(C)CCC[C@H]3CCCCCc3nc4ccc(OC)cc4nc3O2)[C@@H]1C(=O)N[C@]1(C(=O)NS(=O)(=O)C2CC2)C[C@H]1CC` [Example 51]: the 50% effective concentration (EC50) stood at 0.024 µM in assay [1] (GETYPE1B); 0.039 µM in assay [2]; 0.318 µM in [3] (GETYPE1B); 0.103 µM in assay [4]; 0.04 µM in assay [5]; 1.22 µM in assay [6]. Also, the concentration giving a half-maximal response (EC50) in assay [7] was 0.03 µM; in assay [8] (GETYPE1A) it was 0.092 µM; in [9] it was 0.265 µM; in [10] (GETYPE1A) it was 0.028 µM.
With `CC[C@@H]1[C@@H]2CN(C(=O)[C@H](C(C)(C)C)NC(=O)O[C@@H]3C[C@H]3CCCCC(F)(F)c3nc4ccccc4nc3O2)[C@@H]1C(=O)N[C@]1(C(=O)NS(=O)(=O)C2CC2)C[C@H]1CC` [Example 54, (1aR,5S,8S,9S,10R,22aR)-5-tert-butyl-N-{(1R,2R)-1-[(cyclopropylsulfonyl)carbamoyl]-2-ethylcyclopropyl}-9-ethyl-18,18-difluoro-3,6-dioxo-1,1a,3,4,5,6,9,10,18,19,20,21,22,22a-tetradecahydro-8H-7,10-methanocyclopropa[18,19][1,10,3,6]dioxadiazacyclononadecino[11,12-b]quinoxaline-8-carboxamide], the EC50 in assay [1] was determined as 0.01 µM; in assay [2] it was 0.018 µM; in assay [3] it was 0.123 µM; in assay [4], 0.076 µM; in [5] it was 0.033 µM; in assay [6] it was 0.26 µM. The EC50 in assay [7] was determined as 0.013 µM; in [8], 0.027 µM; in [9], 0.147 µM; in [10], 0.019 µM.
For the molecule `CC[C@@H]1[C@@H]2CN(C(=O)[C@H](C(C)(C)C)NC(=O)O[C@@H]3C[C@H]3CCCCC(F)(F)c3nc4ccc(OC)cc4nc3O2)[C@@H]1C(=O)NC1(C(=O)NS(=O)(=O)C2CC2)C[C@H]1C(F)F` (stereo partly drawn) [Example 94, (1aR,5S,8S,9S,10R,22aR)-5-tert-butyl-N-[(2R)-1-[(cyclopropylsulfonyl)carbamoyl]-2-(difluoromethyl)cyclopropyl]-9-ethyl-18,18-difluoro-14-methoxy-3,6-dioxo-1,1a,3,4,5,6,9,10,18,19,20,21,22,22a-tetradecahydro-8H-7,10-methanocyclopropa[18,19][1,10,3,6]dioxadiazacyclononadecino[1,12-b]quinoxaline-8-carboxamide], the EC50 in assay [1] stood at 0.0019 µM; in assay [2] it was 0.0052 µM; in assay [3], 0.0092 µM; in assay [4], 0.0033 µM; in assay [5], 0.0038 µM; in [6] it was 0.032 µM. In addition, the concentration giving a half-maximal response (EC50) in assay [7] is 0.003 µM; in assay [8], 0.0031 µM; in assay [9], 0.01 µM; in [10], 0.0032 µM.
`CC[C@@H]1[C@@H]2CN(C(=O)[C@H](C(C)(C)C)NC(=O)O[C@@]3(C)C[C@@H]3CCCCC(F)(F)c3nc4ccc(OC)cc4nc3O2)[C@@H]1C(=O)N[C@]1(C(=O)NS(=O)(=O)C2(C)CC2)C[C@H]1C(F)F` [Example 64, (1aS,5S,8S,9S,10R,22aS)-5-tert-butyl-N-[(1R,2R)-2-(difluoromethyl)-1-{[(1-methylcyclopropyl)sulfonyl]carbamoyl}cyclopropyl]-9-ethyl-18,18-difluoro-14-methoxy-1a-methyl-3,6-dioxo-1,1a,3,4,5,6,9,10,18,19,20,21,22,22a-tetradecahydro-8H-7,10-methanocyclopropa[18,19][1,10,3,6]dioxadiazacyclononadecino[11,12-b]quinoxaline-8-carboxamide]: the 50% effective concentration (EC50) in assay [1] stood at 0.017 µM; in assay [2] it was 0.038 µM; in assay [3], 0.104 µM; in [4] it was 0.048 µM; in assay [5], 0.1 µM; in [6], 0.671 µM. Besides, the concentration giving a half-maximal response (EC50) in assay [7] came out at 0.034 µM; in assay [8] it was 0.05 µM; in assay [9] it was 0.256 µM; in [10], 0.037 µM.
